Legend:
[1] = test system: DU145; assay: MTT cytotoxicity on various cancer cells (Table 1); type: cell-based, human; details: prostate cancer cell line DU145; MTT, 48 h
Description: (§1) To evaluate anticancer activities of the produced peptides on various types of cancer cells, MTT analysis was performed. Human prostate cancer cell lines (LNCaP, PC3, and DU145), human breast cancer cell lines (MDA-MB-231 and MCF-7), lung cancer cell line (A549), and ovarian cancer cell line (SKOV3) were cultured in RPMI media supplemented with 1% penicillin/streptomycin and 1% fetal bovine serum (all from Life Technologies, Grand Island, NY). The cells were seeded in 96-well plates containing 100 μL of growth media for 24 h. The media were removed, and then 100 μL of the peptide (solvent DPBS) at each concentration was added to each well and incubated at 37° C. for 48 h. After incubation for 48 h, 100 μL of MTT reagent was added to each well. The cells were incubated at 37° C. for 4 h, and then the supernatant was removed. Formazan crystals were dissolved in 100 μL of DMSO with gentle stirring at 37° C. for 10 min. The absorbance per well was measured at 540 nm using a VERSA max microplate reader (Molecular Devices Corp.).

[2] = test system: A549; assay: MTT cytotoxicity on various cancer cells (Table 1); type: cell-based, human; details: lung cancer cell line A549; MTT, 48 h
Description: as §1

[3] = test system: PC3; assay: MTT cytotoxicity on various cancer cells (Table 1); type: cell-based, human; details: prostate cancer cell line PC3; MTT, 48 h
Description: as §1

[4] = test system: SKOV3; assay: MTT cytotoxicity on various cancer cells (Table 1); type: cell-based, human; details: ovarian cancer cell line SKOV3; MTT, 48 h
Description: as §1

[5] = test system: serum testosterone; assay: Serum testosterone level and seminal vesicle weight after repeated injection (FIG. 15); type: in vivo, mouse; details: male BALB/c mice
Description: 6-week-old male BALB/c mice (Jung Ang Lab Animal Inc., Seoul, South Korea) were subcutaneously injected with vehicle or 1 mg/kg/day HS1002 for 10 days. Blood samples were collected 5 h after initial injection and 5 h after last injection. The serum concentration of testosterone was determined using a testosterone ELISA kit (ALPCO Diagnostics, Salem, NH, USA).
GnRH agonists stimulate the release of LH and FSH by binding to GnRHR located on the pituitary gonadotropes and consequently stimulate the secretion of steroid hormone from the gonads. However, continuous exposure to the GnRH agonist results in the downregulation of desensitization of GnRHR and eventually decreases production of testosterone. The inhibitory effect on the pituitary gonadal axis has a role in the anti-prostate cancer effects of GnRH analogs. Based on the HS1002 peptide design strategy, to validate whether HS1002 functions as a GnRHR ligand, the serum testosterone level in male mice was tested after repeated subcutaneous injections of HS1002.

[6] = test system: AKT, ERK1/2, and mTOR pathways; assay: Western blot of hTERT-regulating signaling proteins in LNCaP (FIG. 13); type: cell-based, human; details: LNCaP cells
Description: The cells and tumor tissues were homogenized using the PRO-PREP™ extraction solution (iNtRON Biotechnology, Seongnam, Korea). After incubation, the homogenate was centrifuged at 16,000×g for 20 min at 4° C., and the supernatant was collected for western blot analysis. Subsequently, an equivalent quantity of protein was separated using sodium dodecyl sulfate polyacrylamide gels and transferred onto a polyvinylidene difluoride (PVDF) membrane. The PVDF membranes were incubated with the primary antibodies overnight at 4° C., washed with tris-buffered saline, and then incubated with HRP-conjugated anti-mouse or anti-rabbit antibodies. The bands were visualized using a ChemiDoc imaging system (Bio-Rad, Hercules, CA, USA). The band intensities were determined using an Image J software.
Furthermore, a western blot analysis assessed the expression levels of signaling pathway proteins that regulate hTERT in LNCaP cells treated with HS1002. […] In addition, the expression of AKT, ERK1/2, and mTOR was unchanged in both the control and HS1002 groups (FIG. 13).

[7] = test system: tumor-infiltrating CD45+ and CD8+ cells in MC38 tumor; assay: Flow cytometry of tumor infiltrating leukocytes in MC38 tumors (FIG. 20); type: in vivo, mouse; details: MC38 tumor tissue, vs vehicle
From the text: A mouse tumor dissociation kit (Cat. 130-096-730, Miltenyi Biotec, Bergisch Gladbach, Germany) was used for tumor digestion according to the manufacturer's protocol. Briefly, the tumor was cut into small fragments with RPMI 1640 containing enzymes D, R, and A. After filtration through a 70 μm cell strainer, red blood cells were removed using RBC lysis buffer (Cat. 420301, BioLegend, San Diego, CA, USA). The acquired single-cell suspension was used for further analysis. For analysis of intracellular cytokines, the cell suspension was incubated in the presence of a cell stimulation cocktail (with a protein transport inhibitor) (Cat. 00-4975-93, Invitrogen, eBioscience) for 5 h and subjected to fixation and permeabilization using an intracellular fixation and permeabilization buffer set (Cat. 88-8824-00, Thermo Fisher) according to the manufacturer's protocol. Following the staining process, samples were analyzed with Novocyte (ACEA Biosciences, San Diego, CA, USA).
CTLs are the key mediators of granzyme- and perforin-mediated cancer cell destruction during cancer immunosurveillance and immunotherapy. […] To investigate the effect of HS1002 on tumor-infiltrating CD8^+ T cells in MC38 tumor tissue, flow cytometric analysis was used. Flow cytometric analysis confirmed that HS1002 elevated the total number of tumor-infiltrating CD45+ cells and the production of granzyme B and IFN-γ in CD8^+ cells and in MC38 tumor tissue (FIG. 20A). To assess the effect of HS1002 on immune response-related gene expression in a syngeneic mouse model, gene expression analysis was conducted by profiling the transcriptomes of the tumor. A total of 49,196 genes were analyzed in tumor tissues, and genes with a fold change exceeding 1.5 were included for further analysis with statistical significance at p<0.05.

## CCNC(=O)[C@@H]1CCCN1C(=O)[C@@H](NC(=O)[C@H](Cc1ccccc1)NC(=O)[C@H](CCCNC(=N)N)NC(=O)[C@H](CC(C)C)NC(=O)[C@H](CCCNC(=N)N)NC(=O)[C@H](Cc1ccc(O)cc1)NC(=O)[C@H](CO)NC(=O)[C@H](Cc1c[nH]c2ccccc12)NC(=O)[C@H](Cc1c[nH]cn1)NC(=O)[C@@H]1CCC(=O)N1)[C@@H](C)CC [HS1002]
[1]
  Cytotoxicity (IC50) DU145: 5.23 ± 0.65 mg/L
[2]
  Cytotoxicity (IC50) A549: 7.94 ± 0.07 mg/L
[3]
  Cytotoxicity (IC50) PC3: 7.56 ± 0.61 mg/L
[4]
  Cytotoxicity (IC50) SKOV3: 4.91 ± 0.41 mg/L
[5]; 1 mg/kg s.c., 5 h after the 1st injection
  serum testosterone level increase compared to the vehicle-injected group: 2.37 fold
[5]; 1 mg/kg/day s.c., 10 days, vs vehicle
  seminal vesicle weights: significantly reduced
[5]; 1 mg/kg/day s.c., at 10 days after repeated injection, vs vehicle
  serum testosterone level: significantly lower
[6]
  expression of p-AKT: significantly downregulated
  expression of p-ERK1/2: significantly downregulated
  expression of p-mTOR: significantly downregulated
[6]; total proteins
  expression of AKT, ERK1/2, and mTOR: unchanged
[7]
  production of IFN-γ in CD8+ cells: elevated
  production of granzyme B in CD8+ cells: elevated
  total number of tumor-infiltrating CD45+ cells: elevated

Source: patent US20240247031A1, “COMPOSITION FOR TREATING CANCER CONTAINING TELOMERASE-TARGETING GNRH ANTAGONIST-DERIVED PEPTIDE HS1002” (Research & Business Foundation Sungkyunkwan University, priority 2023, published 2024)
